Patent publication EP4559919A1, “TRICYCLIC-CONTAINING MACROCYCLIC COMPOUND AND USE THEREOF” (Medshine Discovery Inc., priority 2022, dated 2024)

Legend:
[1] = biological target: T1, ALK(L1196M) (Homo sapiens, UniProt Q9UM73, L1196M); experiment: In vitro kinase inhibitory activity assay, Experimental method 1 (ADP-Glo); assay type: biochemical; conditions: final ATP 50 µM, read-out: Kinase half maximal inhibitory concentration IC50 ALK^L1196M
T1 construct: purchased Carna
Protocol: (§1) The kinase inhibitory activity assays of the compounds against ALK, ALK^L1196M, ALK^G1202R, ALK^G1202R/L1196M, ROS1, and TRKB were conducted at Wuhan Heyan Biotechnology Co., Ltd. or Hefei PreceDo Biotechnology Co., Ltd.
(§2) Experimental materials: ALK Active, ALK(L1196M) Active, ALK(G1202R) Active, and ALK(G1202R/L1196M) Active were purchased from Carna; SRC Substrate was purchased from SignalChem; IGF1R tide was purchased from SignalChem; ADP-Glo Kinase Assay was purchased from Promega; Kinase assay buffer III was purchased from SignalChem; and Nivo multimode plate reader (PerkinElmer).
(§3) Each concentration of the compounds was further diluted 20-fold using 1X kinase buffer to prepare compound working solutions containing 5% DMSO. 1 µL of each concentration gradient working solution was added to a microplate, with duplicate wells set for each concentration. 2 µL of ALK enzyme (15 ng per well) and 2 µL of a mixture of substrate and ATP (25 µM ATP, 0.5 µg/µL SRC Substrate) were added to the microplate. […] The reaction system was placed at 25°C for 1 hour. After the reaction, 5 µL of ADP-Glo reagent was added to each well and reacted at 25°C for another 40 minutes. […] Chemiluminescence was then measured using the PerkinElmer Nivo multimode plate reader with an integration time of 0.5 seconds. […]

[2] = biological target: T2, TRKB (Homo sapiens, UniProt Q16620); experiment: as above; assay type: biochemical; conditions: read-out: Kinase half maximal inhibitory concentration IC50 TRKB
T2 construct: purchased Carna
Protocol: as §1, §2
(§4) Each concentration of the compounds was further diluted 20-fold using 1X kinase buffer to prepare compound working solutions containing 5% DMSO. 1 µL of each concentration gradient working solution was added to a microplate, with duplicate wells set for each concentration. 2 µL of ALK enzyme (15 ng per well) and 2 µL of a mixture of substrate and ATP (25 µM ATP, 0.5 µg/µL SRC Substrate) were added to the microplate. […] The reaction system was placed at 25°C for 1 hour. After the reaction, 5 µL of ADP-Glo reagent was added to each well and reacted at 25°C for another 40 minutes. After the reaction, 10 µL of kinase detection reagent was added to each well and reacted at 25°C for 30 minutes. Chemiluminescence was then measured using the PerkinElmer Nivo multimode plate reader with an integration time of 0.5 seconds.
TRKB kinase inhibition assay method: The preparation method for the working solution of the test compound was the same as for the ALK kinase. 2 µL of TRKB (0.5 ng per well) and 4 µL of a mixture of substrate and ATP (5 µM ATP, 0.5 µM SRC Substrate) were added to the microplate. […] The subsequent steps were the same as for ALK kinase.
(§5) The IC50 value could then be derived by performing a curve fit using a four-parameter logistic model (obtained using the "log(inhibitor) vs. response -- Variable slope" mode in GraphPad Prism).

[3] = biological target: T3, ALK (Homo sapiens, UniProt Q9UM73); experiment: as above; assay type: biochemical; conditions: final ATP 10 µM, read-out: Kinase half maximal inhibitory concentration IC50 ALK
T3 construct: purchased Carna
Protocol: as §1, §2, §3

[4] = biological target: ROS1 (Homo sapiens, UniProt P08922); experiment: as above; assay type: biochemical; conditions: read-out: Kinase half maximal inhibitory concentration IC50 ROS1
Protocol: as §1, §2, §3

[5] = biological target: T4, ALK(G1202R/L1196M) (Homo sapiens, UniProt Q9UM73, G1202R/L1196M); experiment: as above; assay type: biochemical; conditions: final ATP 50 µM, read-out: Kinase half maximal inhibitory concentration IC50 ALK^G1202R/L1196M
T4 construct: purchased Carna
Protocol: as §1, §2, §4
ALK (G1202R/L1196M) kinase inhibition assay method: The preparation method for the working solution of the test compound was the same as for the ALK kinase. […] The subsequent steps were the same as for ALK kinase.
as §5

[6] = biological target: T5, ALK(G1202R) (Homo sapiens, UniProt Q9UM73, G1202R); experiment: as above; assay type: biochemical; conditions: final ATP 50 µM, read-out: Kinase half maximal inhibitory concentration IC50 ALK^G1202R
T5 construct: purchased Carna
Protocol: as §1, §2, §4
ALK (G1202R) kinase inhibition assay method: The preparation method for the working solution of the test compound was the same as for the ALK kinase. […] The subsequent steps were the same as for ALK kinase.
as §5

[7] = biological target: T4, ALK(G1202R/L1196M); experiment: In vitro kinase inhibitory activity assay, Experimental method 2 (ADP-Glo); assay type: biochemical; conditions: Experimental method 2; ATP 5.0 µM, substrate IGF1; read-out: Kinase half maximal inhibitory concentration IC50 ALK^G1202R/L1196M
Protocol: as §1
(§6) Experimental materials: ALK (G1202R/L1196M) Active and TRKB were purchased from Carna; IGF1 was purchased from GenScript; PolyE4Y1 was purchased from SIGMA; ADP-Glo™ Reagent was purchased from Promega; ATP was purchased from Promega; Kinase Detection Reagent was purchased from Promega; microplate reader ( PerkinElmer).
Reaction system: ALK(G1202R/L1196M) reaction concentration 8.63 nM, ATP concentration 5.0 µM, substrate IGF1 concentration 0.2 µg/µL. ALK(G1202R/L1196M) kinase buffer was 40 mM Tris-HCl (pH 7.5) + 20 mM magnesium chloride + 0.1 mg/mL BSA + 50 µM DTT.
(§7) ALK(G1202R/L1196M) and TRKB detection method: 2 µL of kinase and 1 µL of compound were added to a 384-well plate; 2 µL of substrate/ATP mixture was added and incubated at room temperature in the dark for 60 minutes; 5 µL of ADP-Glo™ reagent was added and incubated at room temperature for 40 minutes; 10 µL of kinase detection reagent was added and incubated at room temperature for 30 minutes; the plate was read on a microplate reader, and luminescence was recorded (integration time set to 0.5 seconds).
as §5

[8] = biological target: T2, TRKB; experiment: as above; assay type: biochemical; conditions: Experimental method 2; ATP 5.0 µM, substrate PolyE4Y1; read-out: Kinase half maximal inhibitory concentration IC50 TRKB
Protocol: as §1, §6
TRKB reaction concentration 4.47 nM, ATP concentration 5.0 µM, substrate PolyE4Y1 concentration 0.2 µg/µL. TRKB kinase buffer was 40 mM Tris-HCl (pH 7.5) + 20 mM magnesium chloride + 2.5 mM manganese chloride + 0.1mg/mL BSA+ 50 µM DTT.
as §7, §5

[9] = system: Ba/F3-EML4-ALK-G1202R/L1196M; experiment: Anti-proliferative activity test on Ba/F3 cell lines (CellTiter-Glo); assay type: cell-based
Protocol: (§8) • (1) Cell culture: The cell lines were cultured in an incubator at 37°C with 5% CO2. Regular passaging was performed, and cells in the logarithmic growth phase were selected for plating; • (2) Preparation of compound storage plate: The test compounds were prepared into a 10 mM solution with DMSO (Stock Con.); The compounds were then prepared into a 1 mM solution with DMSO (Work Con.); 1 µL of the stock solution was mixed with 9 µL of DMSO to prepare a 10 µL work solution. • (3) Preparation of 1000× compound storage plate (tube): The compounds were 3-fold serially diluted from […] to the lowest concentration, for a total of 8 concentrations; • (4) Preparation of 20× compound working solution: 98 µL of cell culture medium was added to a flat-bottomed 96-well transparent drug plate. From the 1000× compound storage plate, 2 µL of the compound was pipetted into the cell culture medium in the 96-well transparent drug plate. In the solvent control, 2 µL of DMSO was added. After the compound or DMSO was added, the mixture was homogenized using a pipette. • (5) Cells were stained with trypan blue and viable cells were counted to ensure a cell viability of 90% or more. The cell concentration was adjusted to an appropriate concentration; • (6) 95 µL of cell suspension (2000 cells/well) was added to each well of the compound assay cell plate, and cell-free culture medium containing 0.1% DMSO was added to the Min control wells; • (7) Administration in the compound assay cell plate: 5 µL of 20× compound working solution was added to the cell culture plate, 5 µL of DMSO-cell culture medium mixture was added to the Max control wells, and the final concentration of DMSO was 0.1%; • (8) The culture plate was then incubated in an incubator at 37°C with 5% CO2 for 72 hours; • (9) The following operations were conducted in accordance with the instructions of the Promega CellTiter-Glo Luminescent Cell Viability Assay Kit (Promega-G7573): CellTiter-Glo buffer was thawed and brought to room temperature; CellTiter-Glo substrate was brought to room temperature; CellTiter-Glo buffer was added to a bottle of CellTiter-Glo substrate to dissolve the substrate, thereby preparing CellTiter-Glo working solution; The mixture was slowly vortexed and shaken to be fully dissolved; The cell culture plate was removed and allowed to equilibrate to room temperature for 10 minutes; 50 µL (equal to half the volume of cell culture medium in each well) of CellTiter-Glo working solution was added to each well; The culture plate was shaken on an orbital shaker for 2 minutes to induce cell lysis; The plate was then left at room temperature for 10 minutes to stabilize the luminescent signal; The luminescent signal was detected using a SpectraMax Paradigm plate reader; Cell viability assay was conducted using CellTiter-Glo luminescence method.
(§9) Data analysis: The corresponding […] value (RLU) for each well was obtained from SpectraMax Paradigm readings. […] The inhibition rates corresponding to compounds at different concentrations were calculated in Excel, and the inhibition rate curves were plotted using GraphPad Prism software to calculate relevant parameters, including the maximum and minimum inhibition rates of the cells and the IC50 value.

[10] = system: Ba/F3-TEL-TRKB; experiment: as above; assay type: cell-based; conditions: Mus musculus, BaF3; 72 hours; read-out: Half maximal inhibitory concentration IC50 for cells Ba/F3-TEL-TRKB
Protocol: as §8, §9

[11] = HMS CLint (liver) test, hepatocyte metabolic stability; assay type: in vitro ADME; conditions: 0.5 × 10^6 cells/mL, up to 90 minutes
Protocol: The metabolic stability of the compounds of the present disclosure was tested in human and mouse hepatocytes.
• (1) Test compound (10 mM); Control: 7-ethoxycoumarin (30 mM), 7-hydroxycoumarin (reference substance, 30 mM); • Mouse hepatocytes with cell viability of 73.8%, supplier Cat No.: BioreclamationIVTM005052; • Human hepatocytes with cell viability of 94.6%, supplier Cat No.: Bioreclamation IVTX008001. • (2) Buffer system: Thawing medium: Williams' medium E containing 5% fetal bovine serum, 30% Percoll solution, and other auxiliary materials.
Incubation medium: Williams' medium E (without phenol red) containing 2 mM L-glutamine and 25 mM 4-(2-hydroxyethyl)-1-piperazineethanesulfonic acid.
Stop solution: acetonitrile containing 200 ng/mL tolbutamide and labetalol as internal standard. […]
The residual rates of the test compound and the control compound were determined using the following formula: Residual rate (%) = (Peak area ratio of compound to internal standard at any time point)/(Peak area ratio of compound to internal standard at 0 minutes) × 100% [formula]
The elimination rate constant (k) of the test compound and the control compound in hepatocytes was calculated by plotting the logarithm of the residual rate against time. […]

T2 sequence (Q16620 32-822): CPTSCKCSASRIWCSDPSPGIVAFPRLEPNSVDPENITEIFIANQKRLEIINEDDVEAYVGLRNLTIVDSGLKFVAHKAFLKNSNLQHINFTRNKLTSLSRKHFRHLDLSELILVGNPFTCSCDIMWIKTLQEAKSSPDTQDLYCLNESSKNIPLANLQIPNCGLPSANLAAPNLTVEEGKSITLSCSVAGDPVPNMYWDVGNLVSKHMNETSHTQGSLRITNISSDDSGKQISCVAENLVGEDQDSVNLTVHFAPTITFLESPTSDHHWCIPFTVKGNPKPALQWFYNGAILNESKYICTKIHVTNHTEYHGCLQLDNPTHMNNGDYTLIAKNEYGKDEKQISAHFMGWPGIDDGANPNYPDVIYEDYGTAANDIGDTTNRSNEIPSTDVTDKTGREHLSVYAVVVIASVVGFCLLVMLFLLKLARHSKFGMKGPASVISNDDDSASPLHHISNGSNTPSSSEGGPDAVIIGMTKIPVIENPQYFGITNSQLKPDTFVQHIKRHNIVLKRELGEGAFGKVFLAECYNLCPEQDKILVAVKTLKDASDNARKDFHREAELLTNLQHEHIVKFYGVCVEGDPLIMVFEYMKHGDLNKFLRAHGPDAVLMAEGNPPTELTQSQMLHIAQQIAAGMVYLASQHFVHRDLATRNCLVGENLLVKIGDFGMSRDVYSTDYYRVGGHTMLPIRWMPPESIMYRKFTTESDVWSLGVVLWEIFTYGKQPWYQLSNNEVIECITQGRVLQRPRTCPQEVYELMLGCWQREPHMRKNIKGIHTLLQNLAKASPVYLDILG
T4 sequence (Q9UM73 19-1620 L1196M/G1202R): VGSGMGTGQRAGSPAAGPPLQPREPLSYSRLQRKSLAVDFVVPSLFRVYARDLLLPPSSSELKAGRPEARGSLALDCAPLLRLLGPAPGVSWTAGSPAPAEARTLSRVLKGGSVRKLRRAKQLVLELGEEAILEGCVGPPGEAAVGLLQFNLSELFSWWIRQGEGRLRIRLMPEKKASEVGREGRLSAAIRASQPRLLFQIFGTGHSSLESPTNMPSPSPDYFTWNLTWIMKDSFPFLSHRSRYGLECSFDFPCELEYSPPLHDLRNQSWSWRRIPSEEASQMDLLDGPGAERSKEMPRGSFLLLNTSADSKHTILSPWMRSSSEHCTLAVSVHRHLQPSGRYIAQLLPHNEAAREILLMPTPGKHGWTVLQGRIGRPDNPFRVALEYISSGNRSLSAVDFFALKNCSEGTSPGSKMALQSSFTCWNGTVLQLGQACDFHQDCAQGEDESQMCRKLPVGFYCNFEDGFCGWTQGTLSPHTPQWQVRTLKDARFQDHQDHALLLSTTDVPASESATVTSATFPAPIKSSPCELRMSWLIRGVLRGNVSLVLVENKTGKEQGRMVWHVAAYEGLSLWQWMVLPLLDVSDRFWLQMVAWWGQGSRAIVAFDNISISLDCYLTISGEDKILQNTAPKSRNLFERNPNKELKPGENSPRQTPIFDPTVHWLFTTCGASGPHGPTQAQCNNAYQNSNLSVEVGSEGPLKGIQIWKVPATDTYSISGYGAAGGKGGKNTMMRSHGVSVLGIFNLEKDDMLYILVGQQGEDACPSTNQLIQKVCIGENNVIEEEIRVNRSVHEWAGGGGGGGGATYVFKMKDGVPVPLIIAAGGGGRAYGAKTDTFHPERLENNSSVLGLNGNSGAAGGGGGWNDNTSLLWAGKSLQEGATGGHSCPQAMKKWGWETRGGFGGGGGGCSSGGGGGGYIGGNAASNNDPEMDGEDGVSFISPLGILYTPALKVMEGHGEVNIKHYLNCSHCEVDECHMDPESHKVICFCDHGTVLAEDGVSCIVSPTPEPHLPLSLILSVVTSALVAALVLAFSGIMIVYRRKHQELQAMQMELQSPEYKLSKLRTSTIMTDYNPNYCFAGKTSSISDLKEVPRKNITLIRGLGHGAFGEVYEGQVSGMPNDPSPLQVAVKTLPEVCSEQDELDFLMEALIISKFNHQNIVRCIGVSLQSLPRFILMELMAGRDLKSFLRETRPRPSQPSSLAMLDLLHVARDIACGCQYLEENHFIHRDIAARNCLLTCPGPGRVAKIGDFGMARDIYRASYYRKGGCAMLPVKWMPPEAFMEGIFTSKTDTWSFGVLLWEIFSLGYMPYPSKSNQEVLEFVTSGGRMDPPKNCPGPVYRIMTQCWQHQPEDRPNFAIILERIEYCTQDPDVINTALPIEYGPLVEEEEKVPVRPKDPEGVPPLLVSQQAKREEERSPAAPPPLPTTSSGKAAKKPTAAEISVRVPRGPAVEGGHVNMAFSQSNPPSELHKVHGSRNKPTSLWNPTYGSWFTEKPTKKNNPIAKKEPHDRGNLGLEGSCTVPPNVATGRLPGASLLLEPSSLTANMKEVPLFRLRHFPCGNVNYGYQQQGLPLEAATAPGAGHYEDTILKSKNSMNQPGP
Chain of ROS1 (P08922 28-2347): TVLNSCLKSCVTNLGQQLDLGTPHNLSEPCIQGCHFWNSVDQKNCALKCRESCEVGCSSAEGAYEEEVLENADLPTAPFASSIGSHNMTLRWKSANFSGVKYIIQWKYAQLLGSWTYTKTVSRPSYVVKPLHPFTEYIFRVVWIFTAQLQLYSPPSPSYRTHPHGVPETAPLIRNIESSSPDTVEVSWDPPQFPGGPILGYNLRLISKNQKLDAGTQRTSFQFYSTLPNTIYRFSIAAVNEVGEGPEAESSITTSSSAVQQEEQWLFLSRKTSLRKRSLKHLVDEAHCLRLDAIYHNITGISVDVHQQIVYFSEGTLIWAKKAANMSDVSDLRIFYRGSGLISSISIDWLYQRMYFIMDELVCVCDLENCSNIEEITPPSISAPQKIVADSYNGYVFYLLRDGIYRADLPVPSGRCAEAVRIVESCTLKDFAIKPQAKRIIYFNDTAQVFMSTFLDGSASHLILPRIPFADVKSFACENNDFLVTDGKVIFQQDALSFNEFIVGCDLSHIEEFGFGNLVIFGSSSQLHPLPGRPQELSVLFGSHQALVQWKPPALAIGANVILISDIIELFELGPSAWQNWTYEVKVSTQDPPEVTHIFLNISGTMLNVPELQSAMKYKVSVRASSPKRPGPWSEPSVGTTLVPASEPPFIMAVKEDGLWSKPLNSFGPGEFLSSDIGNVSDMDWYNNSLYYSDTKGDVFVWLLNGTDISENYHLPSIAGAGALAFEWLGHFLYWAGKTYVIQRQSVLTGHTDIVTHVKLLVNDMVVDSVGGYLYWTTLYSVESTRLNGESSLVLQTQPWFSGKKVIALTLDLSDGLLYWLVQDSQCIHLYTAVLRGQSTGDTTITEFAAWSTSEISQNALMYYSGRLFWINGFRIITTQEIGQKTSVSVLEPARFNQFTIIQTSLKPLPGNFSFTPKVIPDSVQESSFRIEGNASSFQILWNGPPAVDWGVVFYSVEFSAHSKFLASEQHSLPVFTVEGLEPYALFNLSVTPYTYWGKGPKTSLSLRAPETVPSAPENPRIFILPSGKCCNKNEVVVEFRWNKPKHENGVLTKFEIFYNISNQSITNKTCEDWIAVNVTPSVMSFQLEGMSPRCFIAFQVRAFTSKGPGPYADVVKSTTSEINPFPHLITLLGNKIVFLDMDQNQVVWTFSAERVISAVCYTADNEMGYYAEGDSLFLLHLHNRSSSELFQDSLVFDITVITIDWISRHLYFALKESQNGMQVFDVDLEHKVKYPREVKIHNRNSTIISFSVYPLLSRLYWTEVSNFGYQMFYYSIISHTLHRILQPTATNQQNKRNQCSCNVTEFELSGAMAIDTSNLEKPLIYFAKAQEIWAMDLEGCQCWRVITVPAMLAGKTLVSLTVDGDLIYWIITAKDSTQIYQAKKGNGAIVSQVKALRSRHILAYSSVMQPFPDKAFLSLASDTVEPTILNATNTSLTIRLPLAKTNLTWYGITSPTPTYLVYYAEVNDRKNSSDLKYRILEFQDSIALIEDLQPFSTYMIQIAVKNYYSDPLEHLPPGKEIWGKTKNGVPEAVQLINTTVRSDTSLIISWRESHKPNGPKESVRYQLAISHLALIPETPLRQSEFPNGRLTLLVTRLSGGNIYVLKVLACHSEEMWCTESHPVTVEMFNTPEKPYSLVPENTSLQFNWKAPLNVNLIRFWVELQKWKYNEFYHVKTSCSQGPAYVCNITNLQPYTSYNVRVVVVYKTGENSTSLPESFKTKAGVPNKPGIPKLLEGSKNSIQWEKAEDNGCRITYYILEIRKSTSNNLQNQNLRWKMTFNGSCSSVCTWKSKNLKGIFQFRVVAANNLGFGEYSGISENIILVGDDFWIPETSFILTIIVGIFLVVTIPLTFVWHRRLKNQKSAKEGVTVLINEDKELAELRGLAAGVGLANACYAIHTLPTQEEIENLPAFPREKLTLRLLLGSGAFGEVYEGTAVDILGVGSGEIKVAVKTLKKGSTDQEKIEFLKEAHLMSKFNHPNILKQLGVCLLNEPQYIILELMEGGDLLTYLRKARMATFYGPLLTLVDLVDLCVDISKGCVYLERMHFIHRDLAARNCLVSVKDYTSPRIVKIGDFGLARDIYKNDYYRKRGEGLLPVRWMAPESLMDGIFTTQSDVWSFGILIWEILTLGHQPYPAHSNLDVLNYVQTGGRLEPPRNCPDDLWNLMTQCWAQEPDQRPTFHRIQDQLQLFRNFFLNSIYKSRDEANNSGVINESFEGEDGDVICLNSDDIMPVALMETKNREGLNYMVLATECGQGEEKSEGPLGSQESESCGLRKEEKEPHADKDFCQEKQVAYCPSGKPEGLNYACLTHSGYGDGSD
T5 sequence (Q9UM73 19-1620 G1202R): as the sequence (Q9UM73 19-1620 L1196M/G1202R) above, with M1178L counted along it
T1 sequence (Q9UM73 19-1620 L1196M): as the sequence (Q9UM73 19-1620 L1196M/G1202R) above, with R1184G counted along it
T3 sequence (Q9UM73 19-1620): as the sequence (Q9UM73 19-1620 L1196M/G1202R) above, with M1178L, R1184G counted along it

| SMILES | IC50 [1] | IC50 [2] | IC50 [3] | IC50 [4] | IC50 [5] | IC50 [6] | IC50 [7] | IC50 [8] | IC50 ([9]; Ba/F3 EML4-ALK-G1202R-L1196M, 72 hours, read-out: Half maximal inhibitory concentration IC50 for cells Ba/F3-EML4-ALK-G1202R/L1196 M) | selectivity: inhibition against ALK-mutant cells versus TRKB phenotypic cells ([9]; stronger inhibition of ALK-mutant cells, relatively weaker of TRKB phenotypic cells) | IC50 [10] | CLint scaled ([11]; Human hepatocytes) | CLint scaled ([11]; Mouse hepatocytes) |
| --- | --- | --- | --- | --- | --- | --- | --- | --- | --- | --- | --- | --- | --- |
| CON=C1NC(C)(C)COc2ccc(F)cc2CN2c3nc4c1cnn4cc3OC[C@H]2C(F)F [Compound 001] | 12.8 nM | 2.2 nM | 22.2 nM | 17.3 nM | 12.4 nM | 16.9 nM | – | – | – | – | – | – | – |
| CC#Cc1nn2cc3c4nc2c1C(=O)NC(C)(C)COc1ccc(F)cc1CN4[C@H](C(F)F)CO3 [Compound 018] | – | – | – | – | – | – | 0.7 nM | 4.9 nM | 1.1 nM | excellent selectivity | 6.9 nM | < 17.8 mL/min/kg | 291 mL/min/kg |
